Several values for one entry are separate records, joined by “and”; a condition that tells them apart may be missing. Identical values can stand only once.
Molecular target: T1, recombinant human AMPK complex, containing α2β1γ2 (Homo sapiens, UniProt P54646+Q9Y478)
T1 construct: hsAMPKα2-552-His, hsAMPKβ1-2-270 and hsAMPKγ-2-569 respectively; hsAMPKβ1-2-270; hsAMPKγ-2-569; His (C); made in house; host or cells: Spodoptera frugiperda Sf21 (baculovirus)
Assay: AMPK in vitro activation assay (HTRF)
Assay type: biochemical
Details: for EC50: HTRF, recombinant human α2β1γ2 AMPK, 200 μM ATP, biotinylated ACC-CREBp peptide, repeat determinations on separate lines
Procedure, shortened: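 HTRF phosphorylation read-out (Eu-cryptate anti-pS133-CREB, streptavidin-XL665) after a 45 min, 37° C kinase step. This step was initiated by a solution with 200 μM ATP and 2 or 0.08 μM biotinylated ACC-CREBp peptide. Beforehand, compound sat 30 min at room temperature with baculovirus/Sf21 α2β1γ2 in pH 7.0 HEPES buffer; EC50 derived from activation over basal.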

[1] = potentiation of AMPK activity as percent over the basal signal (without compound)

T1 sequence (P54646 2-552): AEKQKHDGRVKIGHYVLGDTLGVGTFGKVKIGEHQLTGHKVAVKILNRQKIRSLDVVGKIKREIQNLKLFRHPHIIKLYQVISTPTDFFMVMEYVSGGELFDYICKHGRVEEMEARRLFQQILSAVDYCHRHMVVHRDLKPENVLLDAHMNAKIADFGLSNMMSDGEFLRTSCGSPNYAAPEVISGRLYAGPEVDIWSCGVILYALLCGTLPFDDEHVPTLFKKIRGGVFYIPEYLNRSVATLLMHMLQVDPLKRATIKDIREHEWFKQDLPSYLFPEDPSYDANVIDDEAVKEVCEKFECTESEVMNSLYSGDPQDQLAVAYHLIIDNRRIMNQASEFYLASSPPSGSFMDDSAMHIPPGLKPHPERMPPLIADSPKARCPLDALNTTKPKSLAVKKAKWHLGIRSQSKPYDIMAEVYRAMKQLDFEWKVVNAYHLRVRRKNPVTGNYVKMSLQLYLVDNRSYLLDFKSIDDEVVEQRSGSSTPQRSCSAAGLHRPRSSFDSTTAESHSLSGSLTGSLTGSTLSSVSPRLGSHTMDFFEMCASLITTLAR
T1 sequence (Q9Y478 2-270): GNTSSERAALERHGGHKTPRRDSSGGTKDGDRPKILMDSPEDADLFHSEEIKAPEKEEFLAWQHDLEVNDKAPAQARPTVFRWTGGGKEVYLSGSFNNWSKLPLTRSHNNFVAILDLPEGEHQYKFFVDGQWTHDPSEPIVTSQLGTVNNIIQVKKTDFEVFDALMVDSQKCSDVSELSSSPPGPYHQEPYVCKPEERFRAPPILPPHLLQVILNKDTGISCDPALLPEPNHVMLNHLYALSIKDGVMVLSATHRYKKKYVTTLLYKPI
T1 sequence (Q9UGJ0 2-569 partner limits assumed): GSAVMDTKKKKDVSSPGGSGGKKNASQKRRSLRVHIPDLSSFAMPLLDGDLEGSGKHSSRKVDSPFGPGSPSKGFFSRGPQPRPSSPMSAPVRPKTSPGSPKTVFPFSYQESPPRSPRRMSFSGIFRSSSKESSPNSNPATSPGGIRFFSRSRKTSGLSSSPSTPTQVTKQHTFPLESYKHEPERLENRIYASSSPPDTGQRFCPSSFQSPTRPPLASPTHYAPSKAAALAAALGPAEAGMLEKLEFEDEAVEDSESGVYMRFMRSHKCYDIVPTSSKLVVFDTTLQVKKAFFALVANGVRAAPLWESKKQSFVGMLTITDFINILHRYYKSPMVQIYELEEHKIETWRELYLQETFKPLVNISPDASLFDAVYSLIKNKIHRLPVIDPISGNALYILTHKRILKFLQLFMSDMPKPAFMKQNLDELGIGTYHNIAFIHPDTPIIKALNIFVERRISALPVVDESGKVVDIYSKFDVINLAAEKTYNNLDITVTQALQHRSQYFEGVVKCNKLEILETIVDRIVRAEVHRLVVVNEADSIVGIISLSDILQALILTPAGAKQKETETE

SMILES	EC50	Emax [1]	α2β1γ2 AMPK Emax [1]
O=C1Nc2cc(Cl)c(-c3ccc(C4CC4)cc3)cc2C1=C(O)c1cccc(F)c1 [Compound 26, 6-Chloro-5-(4-cyclopropyl-phenyl)-3-[1-(3-fluoro-phenyl)-1-hydroxy-methylidene]-1,3-dihydro-indol-2-one]	440 nM	153%	–
O=C1Nc2cc(Cl)c(-c3ccc(N4CCOCC4)cc3)cc2C1=C(O)c1ccccc1 [Compound 43, 6-Chloro-3-[1-hydroxy-1-phenyl-methylidene]-5-(4-morpholin-4-yl-phenyl)-1,3-dihydro-indol-2-one]	220 nM	170%	–
COCCOc1cc(C(O)=C2C(=O)Nc3cc(Cl)c(-c4ccc(-c5cccc(OC)c5O)cc4)cc32)on1 [Compound 79, 6-chloro-3-[hydroxy-[3-(2-methoxyethoxy)isoxazol-5-yl]methylene]-5-[4-(2-hydroxy-3-methoxy-phenyl)phenyl]indolin-2-one]	38 nM	133%	–
COc1cc(C(O)=C2C(=O)Nc3cc(Cl)c(-c4ccc(C(O)CO)cc4)cc32)on1 (stereo not shown) [Compound 122, 6-chloro-5-[4-(1,2-dihydroxyethyl)phenyl]-3-[hydroxy-(3-methoxyisoxazol-5-yl)methylene]indolin-2-one]	7 nM	172%	–
O=C1Nc2cc(Cl)c(-c3ccc(C4(CO)CC4)cc3)cc2C1=C(O)c1ccco1 [Compound 126, 6-chloro-3-[2-furyl(hydroxy)methylene]-5-[4-[1-(hydroxymethyl)cyclopropyl]phenyl]indolin-2-one]	0.3 nM	295%	–
COc1cc(C(O)=C2C(=O)Nc3cc(Cl)c(-c4ccc(OCCCN(C)C)cc4)cc32)on1 [Compound 173, 6-chloro-5-[4-[3-(dimethylamino)propoxy]phenyl]-3-[hydroxy-(3-methoxyisoxazol-5-yl)methylene]indolin-2-one]	1 nM	181%	–
Cc1ncc(C(O)=C2C(=O)Nc3cc(Cl)c(-c4ccc(N(C)C)cc4)cc32)s1 [Compound 10, 6-Chloro-5-(4-dimethylamino-phenyl)-3-[1-hydroxy-1-(2-methyl-thiazol-5-yl)-methylidene]-1,3-dihydro-indol-2-one]	89 nM	127%	–
COc1cc(C(O)=C2C(=O)Nc3cc(Cl)c(-c4cnc(N(C)C)nc4)cc32)on1 [Compound 145, 6-chloro-5-[2-(dimethylamino)pyrimidin-5-yl]-3-[hydroxy-(3-methoxyisoxazol-5-yl)methylene]indolin-2-one]	95 nM	257%	–
O=C1Nc2cc(Cl)c(-c3ccc(C4=CCOCC4)cc3)cc2C1=C(O)c1cccc(F)c1 [Compound 52, 6-Chloro-5-[4-(3,6-dihydro-2H-pyran-4-yl)-phenyl]-3-[1-(3-fluoro-phenyl)-1-hydroxy-methylidene]-1,3-dihydro-indol-2-one]	120 nM	147%	–
CC(C)(C)c1cc(C(O)=C2C(=O)Nc3cc(Cl)c(-c4ccc(C5CC(O)C5)cc4)cc32)on1 (stereo not shown) [Compound 164, 3-[(3-tert-butylisoxazol-5-yl)-hydroxy-methylene]6-chloro-5-[4-(3-hydroxycyclobutyl)phenyl]indolin-2-one]	11 nM	194%	–
COc1cc(F)c(C(O)=C2C(=O)Nc3cc(Cl)c(-c4ccc(C5CC(O)C5)cc4)cc32)cc1F (stereo not shown) [Compound 159, 6-chloro-3-[(2,5-difluoro-4-methoxy-phenyl)hydroxy-methylene]-5-[4-(3-hydroxycyclobutyl)phenyl]indolin-2-one]	10 nM	180%	–
COc1cc(F)c(C(O)=C2C(=O)Nc3cc(Cl)c(-c4ccc(N5CCOCC5)cc4)cc32)cc1F [Compound 108, 6-chloro-3-[(2,5-difluoro-4-methoxy-phenyl)hydroxy-methylene]-5-(4-morpholinophenyl)indolin-2-one]	6 nM	141%	–
COc1cc(C(O)=C2C(=O)Nc3cc(Cl)c(-c4ccc(N5CCCC5)cc4)cc32)on1 [Compound 137, 6-chloro-3-[hydroxy-(3-methoxyisoxazol-5-yl)methylene]-5-(4-pyrrolidin-1-ylphenyl)indolin-2-one]	16 nM	271%	–
COc1cc(C(O)=C2C(=O)Nc3cc(Cl)c(-c4ccc(N5CCC(O)C5)cc4)cc32)on1 (stereo not shown) [Compound 156, 6-chloro-3-[hydroxy-(3-methoxyisoxazol-5-yl)methylene]-5-[4-(3-hydroxypyrrolidin-1-yl)phenyl]indolin-2-one]	2 nM	229%	–
O=C1Nc2cc(Cl)c(-c3ccc(N4CCOCC4)cc3)cc2C1=C(O)c1ccc(F)cc1 [Compound 36, 6-Chloro-3-[1-(4-fluoro-phenyl)-1-hydroxy-methylidene]-5-(4-morpholin-4-yl-phenyl)-1,3-dihydro-indol-2-one]	380 nM	153%	–
Cc1cc(C(O)=C2C(=O)Nc3cc(Cl)c(-c4ccc(N5CCOCC5)cc4)cc32)on1 [Compound 14, 6-Chloro-3-[1-hydroxy-1-(3-methyl-isoxazol-5-yl)-methylidene]-5-(4-morpholin-4-yl-phenyl)-1,3-dihydro-indol-2-one]	38 nM	283%	–
O=C1Nc2cc(Cl)c(-c3ccc(N4CCOCC4)cc3)cc2C1=C(O)c1cccc(N2CCOCC2)c1 [Compound 94, 6-chloro-3-[hydroxy-(3-morpholinophenyl)methylene]-5-(4-morpholinophenyl)indolin-2-one]	14 nM	150%	–
COc1cc(C(O)=C2C(=O)Nc3cc(Cl)c(-c4ccc(N5CCC5)cc4)cc32)on1 [Compound 162, 5-[4-(azetidin-1-yl)phenyl]6-chloro-3-[hydroxy-(3-methoxyisoxazol-5-yl)methylene]indolin-2-one]	0.7 nM	191%	–
COc1cccc(-c2ccc(-c3cc4c(cc3Cl)NC(=O)C4=C(O)c3cc(C)no3)cc2)c1O [Compound 5, 6-Chloro-5-(2′-hydroxy-3′-methoxy-biphenyl-4-yl)-3-[1-hydroxy-1-(3-methyl-isoxazol-5-yl)-meth-ylidene]-1,3-dihydro-indol-2-one]	4 nM	193%	–
O=C1Nc2cc(Cl)c(-c3ccc(C4(CO)CC4)cc3)cc2C1=C([O-])c1ccccc1F.[Na+] [Compound 47, 6-Chloro-3-[1-(2-fluoro-phenyl)-1-hydroxy-methylidene]-5-[4-(1-hydroxymethyl-cyclopropyl)-phenyl]-1,3-dihydro-indol-2-one, sodium salt]	25 nM	–	(94) %
Cc1cc(C(O)=C2C(=O)Nc3cc(Cl)c(-c4ccc(C#N)cc4)cc32)on1 [Compound 38, 4-{6-Chloro-3-[1-hydroxy-1-(3-methyl-isoxazol-5-yl)-methylidene]-2-oxo-2,3-dihydro-1H-indol-5-yl}-benzonitrile]	700 nM	133%	–
COc1cc(C(O)=C2C(=O)Nc3cc(Cl)c(-c4ccc(C5(CO)CC5)cc4)cc32)ccn1 [Compound 158, 6-chloro-3-[hydroxy-(2-methoxy-4-pyridyl)methylene]-5-[4-[1-(hydroxymethyl)cyclopropyl]phenyl]indolin-2-one]	0.5 nM	130%	–
COCCOc1ccc(-c2cc3c(cc2Cl)NC(=O)C3=C(O)c2cc(C)no2)cc1 [Compound 103, 6-chloro-3-[hydroxy-(3-methylisoxazol-5-yl)methylene]-5-[4-(2-methoxyethoxy)phenyl]indolin-2-one]	16 nM	114%	–
COc1cc(C(O)=C2C(=O)Nc3cc(Cl)c(-c4ccc(OCCCO)cc4)cc32)on1 [Compound 129, 6-chloro-3-[hydroxy-(3-methoxyisoxazol-5-yl)methylene]-5-[4-(3-hydroxypropoxy)phenyl]indolin-2-one]	20 nM and 10 nM	–	–
O=C1Nc2cc(Cl)c(-c3ccc(N4CCOCC4)cc3)cc2C1=C(O)c1cccc(C(=O)O)c1 [Compound 4, 3-{[6-Chloro-5-(4-morpholin-4-yl-phenyl)-2-oxo-1,2-dihydro-indolylidene]-hydroxy-methyl}-benzoic acid]	15 nM	97%	–
COc1ccc(C(O)=C2C(=O)Nc3cc(Cl)c(-c4ccc(N5CCOCC5)cc4)cc32)cn1 [Compound 151, 6-chloro-3-[hydroxy-(6-methoxy-3-pyridyl)methylene]-5-(4-morpholinophenyl)indolin-2-one]	6 nM	161%	–
Cc1cc(C(O)=C2C(=O)Nc3cc(Cl)c(-c4ccc(-c5ccco5)cc4)cc32)on1 [Compound 65, 6-Chloro-5-(4-furan-2-yl-phenyl)-3-[1-hydroxy-1-(3-methyl-isoxazol-5-yl)methylidene]-1,3-dihydro-indol-2-one]	120 nM	113%	–
O=C1Nc2cc(Cl)c(-c3ccc(N4CCOCC4)cc3)cc2C1=C(O)c1cccnc1 [Compound 25, 6-Chloro-3-[1-hydroxy-1-pyridin-3-yl-methylidene]-5-(4-morpholin-4-yl-phenyl)-1,3-dihydro-indol-2-one]	320 nM	146%	–
O=C1Nc2cc(Cl)c(-c3ccc(C4(CO)CC4)cc3)cc2C1=C(O)c1cc(Br)no1 [Compound 73, 3-[1-(3-Bromo-isoxazol-5-yl)-1-hydroxy-methylidene]-6-chloro-5-[4-(1-hydroxymethyl-cyclopropyl)phenyl]-1,3-dihydro-indol-2-one]	6 nM	148%	–
O=C1Nc2cc(Cl)c(-c3ccc(N4CCOCC4)cc3)cc2C1=C(O)c1cc(C2CC2)no1 [Compound 87, 6-chloro-3-[(3-cyclopropylisoxazol-5-yl)hydroxy-methylene]-5-(4-morpholinophenyl)indolin-2-one]	0.5 nM and 0.6 nM	–	–

Reference: patent US10077237B2 (Sanofi, priority 2013, dated 2018)
